Common to all, as to assay type: cell-based
For experiment [1], the system named is MOLM13 (acute monocytic leukemia) cells. The experiment is described as follows: Cell proliferation assay (ATPlite cell viability) in MOLM13 cells. Particulars: for IC50: Homo sapiens. The procedure:
2000 cells were seeded in 50 μL of RPMI medium in each well of a white, solid bottomed 384-well plate. Plates were spun down briefly, and seeded cells were pinned with […] of the bifunctional compound at serial three-fold diluted concentrations using the JANUS® Liquid Handling Workstation. […] After compound treatment, 15 μL of 1:2 solution of ATPlite™ 1Step diluted in PBS was added to each well of the 384-well plates. Plates were put on a plate shaker for 1 minute and incubated at room temperature for 9 minutes, and the resulting luminescence signal was read using an EnVision® plate reader. Cell viability was calculated by normalizing luminescence signals of SMARC compound treated cells to that of vehicle treated cells.
For orientation: Cellular ATP, detected with luciferase, serves as a proxy for viable cell number.

In experiment [2] the test system is MV411 (human myelomonocytic leukemia) cells. Nature of the experiment: Cell proliferation assay (ATPlite cell viability) in MV411 cells. Particulars: for IC50: Homo sapiens, MV4-11, 48 hours. The procedure: 2000 cells were seeded in 50 μL of RPMI medium in each well of a white, solid bottomed 384-well plate. Plates were spun down briefly, and seeded cells were pinned with […] of the bifunctional compound at serial three-fold diluted concentrations using the JANUS® Liquid Handling Workstation. Plates were incubated at 37° C. in 5% CO2 for the indicated treatment time (48 hours). After compound treatment, 15 μL of 1:2 solution of ATPlite™ 1Step diluted in PBS was added to each well of the 384-well plates. Plates were put on a plate shaker for 1 minute and incubated at room temperature for 9 minutes, and the resulting luminescence signal was read using an EnVision® plate reader. Cell viability was calculated by normalizing luminescence signals of SMARC compound treated cells to that of vehicle treated cells.

The target in a further experiment is T1, SMARCA4 (BRG) (Homo sapiens, UniProt P51532).
T1 construct: endogenous in cells; host or cells: NOMO-1 cells
Nature of the experiment: Cellular degradation of SMARCA4 in NOMO-1 cells (western blot). To be noted: NOMO1 cells, low micromolar treatment, 24 hours, western blot FIG. 1A-1B. The procedure: For each tested condition, 1 million cells were seeded into a well of a 6-well plate. After overnight incubation at 37° C. in 5% CO2, cells were treated with either DMSO or varying doses of the indicated bifunctional compound and put back into the incubator for the indicated treatment time. Treated cells were collected by transferring cell suspensions from 6-well plate wells into microcentrifuge tubes and spinning down samples at 3000 rpm for 3 minutes. Supernatant was discarded and all samples were washed with phosphate-buffered saline (PBS) to remove any remaining compound from the cells. Cells were lysed using radioimmunoprecipitation assay (RIPA) buffer and sonicated on ice for 3 seconds at 25% amplification and allowed to rest for 15-30 minutes. Lysates were then spun down at 15000 rpm for 10 minutes and supernatant was collected. Protein concentration was measured using the Pierce™ bicinchoninic acid (BCA) Protein Assay Kit from ThermoFisher Scientific according to the manufacturer's instructions. Equivalent amounts of protein were resolved by western blotting using 4-12% Bis-Tris NuPAGE™ gels (Thermo-Fisher Scientific) prior to transfer and overnight immunoblotting using primary antibodies to the proteins indicated. […]

[3] abbreviates: MOLM-13, 48 hours, read-out: IC50 (μM) MOLM13-48h.
Setting [4] is: MOLM-13, 72 h (starred values), read-out: IC50 (μM) MOLM13, *72 h.

What is called IC50 is the concentration needed to halve the response being measured.

The structures appear in SMILES notation. Read-outs that look alike come from different tables or passages of the source.

T1 sequence (P51532 whole entry): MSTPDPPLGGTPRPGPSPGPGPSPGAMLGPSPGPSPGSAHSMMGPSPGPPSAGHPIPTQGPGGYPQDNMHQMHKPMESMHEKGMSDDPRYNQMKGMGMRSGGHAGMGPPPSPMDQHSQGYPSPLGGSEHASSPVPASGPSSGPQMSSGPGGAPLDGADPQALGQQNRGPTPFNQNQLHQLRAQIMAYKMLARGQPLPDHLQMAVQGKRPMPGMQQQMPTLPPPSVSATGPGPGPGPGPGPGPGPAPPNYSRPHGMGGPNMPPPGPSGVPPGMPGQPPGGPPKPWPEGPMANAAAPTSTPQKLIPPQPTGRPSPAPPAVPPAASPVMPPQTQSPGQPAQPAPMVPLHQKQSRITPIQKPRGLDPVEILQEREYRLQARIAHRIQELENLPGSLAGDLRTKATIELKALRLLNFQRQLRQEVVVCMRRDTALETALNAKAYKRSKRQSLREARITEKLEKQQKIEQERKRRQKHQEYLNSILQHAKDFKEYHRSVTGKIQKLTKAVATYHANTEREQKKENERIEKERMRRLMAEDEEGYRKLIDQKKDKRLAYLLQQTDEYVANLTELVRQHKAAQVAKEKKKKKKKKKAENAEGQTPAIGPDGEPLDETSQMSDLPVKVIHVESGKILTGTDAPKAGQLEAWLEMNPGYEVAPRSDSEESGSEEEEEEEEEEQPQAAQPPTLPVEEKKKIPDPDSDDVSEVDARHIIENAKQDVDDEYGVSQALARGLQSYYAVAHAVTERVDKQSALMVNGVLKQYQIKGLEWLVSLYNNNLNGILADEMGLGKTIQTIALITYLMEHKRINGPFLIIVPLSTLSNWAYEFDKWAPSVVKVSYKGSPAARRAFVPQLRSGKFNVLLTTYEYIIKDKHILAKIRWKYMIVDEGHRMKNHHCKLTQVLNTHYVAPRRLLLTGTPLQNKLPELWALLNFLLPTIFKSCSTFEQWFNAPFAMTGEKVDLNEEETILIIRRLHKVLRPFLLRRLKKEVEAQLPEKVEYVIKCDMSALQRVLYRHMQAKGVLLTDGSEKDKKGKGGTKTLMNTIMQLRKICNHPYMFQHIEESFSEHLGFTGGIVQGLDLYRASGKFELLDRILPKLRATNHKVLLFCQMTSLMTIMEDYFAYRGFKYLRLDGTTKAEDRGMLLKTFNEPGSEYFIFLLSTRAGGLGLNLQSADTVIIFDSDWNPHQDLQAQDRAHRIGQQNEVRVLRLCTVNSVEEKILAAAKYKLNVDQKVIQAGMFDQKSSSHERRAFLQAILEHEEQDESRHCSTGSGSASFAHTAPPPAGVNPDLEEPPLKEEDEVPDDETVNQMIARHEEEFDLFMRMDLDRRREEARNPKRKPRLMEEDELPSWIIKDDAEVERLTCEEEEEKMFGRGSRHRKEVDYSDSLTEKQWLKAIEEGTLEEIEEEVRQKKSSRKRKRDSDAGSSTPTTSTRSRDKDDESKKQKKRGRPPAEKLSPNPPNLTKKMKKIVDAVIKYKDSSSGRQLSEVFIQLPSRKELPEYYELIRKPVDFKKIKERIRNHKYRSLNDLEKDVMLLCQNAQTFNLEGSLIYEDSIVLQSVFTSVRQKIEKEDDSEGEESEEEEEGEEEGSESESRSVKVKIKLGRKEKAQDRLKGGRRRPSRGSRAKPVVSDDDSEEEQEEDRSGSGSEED

For the compound `O=C1CCC(N2C(=O)c3cccc(NCCCCNC(=O)c4cccc(C#Cc5cc(NC(=O)Nc6ccnc(Cl)c6)ccn5)c4)c3C2=O)C(=O)N1` (racemic) [Compound 19, 3-((4-(3-(2-chloropyridin-4-yl)ureido)pyridin-2-yl)ethynyl)-N-(4-((2-(2,6-dioxopiperidin-3-yl)-1,3-dioxoisoindolin-4-yl)amino)butyl)benzamide], the “IC50 (μM) MOLM13-48h” value in experiment [1] (48 hours) was “submicromolar”. Moreover, the half-inhibitory concentration (IC50) in experiment [1] (setting [3]) is 0.0571 µM. For the same compound, in experiment [2], the “IC50 (μM) MV411-48h” value is reported as “submicromolar” and half-maximal inhibition (IC50) was put at 0.109 µM.
For the compound `O=C1CCC(N2C(=O)c3cccc(NCCCCNC(=O)c4cccc(CCc5cc(NC(=O)Nc6ccnc(Cl)c6)ccn5)c4)c3C2=O)C(=O)N1` (stereo not drawn) [Compound 5, 3-(2-(4-(3-(2-chloropyridin-4-yl)ureido)pyridin-2-yl)ethyl)-N-(4-((2-(2,6-dioxopiperidin-3-yl)-1,3-dioxoisoindolin-4-yl)amino)butyl)benzamide], on SMARCA4 (BRG), the “BRG (SMARCA4) degradation” value is “significantly degraded”.
As for `O=C1CCC(N2C(=O)c3cccc(NCCCCNC(=O)c4ccc(C#Cc5cc(NC(=O)Nc6ccnc(Cl)c6)ccn5)cc4)c3C2=O)C(=O)N1` (stereo not drawn) [Compound 6, 4-((4-(3-(2-chloropyridin-4-yl)ureido)pyridin-2-yl)ethynyl)-N-(4-((2-(2,6-dioxopiperidin-3-yl)-1,3-dioxoisoindolin-4-yl)amino)butyl)benzamide], the “BRG (SMARCA4) degradation” value at SMARCA4 (BRG) is “significantly degraded”.
`O=C1CCC(N2C(=O)c3cccc(NCCCCCCCCNC(=O)c4cccc(C#Cc5cc(NC(=O)Nc6ccnc(Cl)c6)ccn5)c4)c3C2=O)C(=O)N1` (stereo not drawn) [Compound 17]: the 50% inhibitory concentration (IC50) in experiment [1] (setting [4]) is 0.566 µM; in experiment [2], 0.491 µM.
Regarding `O=C1CCC(N2C(=O)c3cccc(NCCOCCOCCNC(=O)c4cccc(C#Cc5cc(NC(=O)Nc6ccnc(Cl)c6)ccn5)c4)c3C2=O)C(=O)N1` (stereo not drawn) [Compound 18], the half-inhibitory concentration (IC50) in experiment [1] (setting [4]) stood at 1.28 µM; in experiment [2], 0.109 µM.
As to `O=C1CCC(N2C(=O)c3ccc(NCCCCNC(=O)c4cccc(C#Cc5cc(NC(=O)Nc6ccnc(Cl)c6)ccn5)c4)cc3C2=O)C(=O)N1` (stereo not drawn) [Compound 21], the values for the concentration for half-maximal inhibition (IC50) in experiment [1] (setting [3]) and in experiment [2] were 0.0793 µM and 0.0102 µM, respectively.
For the compound `O=C1CCC(N2C(=O)c3ccc(NCCOCCNC(=O)c4cccc(C#Cc5cc(NC(=O)Nc6ccnc(Cl)c6)ccn5)c4)cc3C2=O)C(=O)N1` (stereo not drawn) [Compound 22], the 50% inhibitory concentration (IC50) in experiment [1] (setting [3]) was 0.253 µM; in experiment [2], 0.037 µM.
On to `O=C1CCC(N2C(=O)c3cccc(NCCNC(=O)c4cccc(C#Cc5cc(NC(=O)Nc6ccnc(Cl)c6)ccn5)c4)c3C2=O)C(=O)N1` (stereo not drawn) [Compound 23], for which the IC50 stood at 6.18 µM in experiment [1] (setting [3]) and 21.7 µM in experiment [2].
For `O=C1CCC(N2C(=O)c3cccc(NCCCCCCNC(=O)c4cccc(C#Cc5cc(NC(=O)Nc6ccnc(Cl)c6)ccn5)c4)c3C2=O)C(=O)N1` (stereo not drawn) [Compound 24], the values for the IC50 in experiment [1] (setting [3]) and in experiment [2] were 0.344 µM and 0.0389 µM, respectively.
